Results taken from patent US20030236212A1, “Functionalized long chain derivatives as acyl coenzyme-A mimics, compositions thereof, and methods of cholesterol management and related uses” (priority 2002, published 2003).
Like-named read-outs stand apart in the source and are kept apart here.

System: obese female Zucker rats
Experiment: Oral daily treatment of obese female Zucker rats for 14 days (body weight, serum lipids, glucose, insulin)
Type: in vivo, rat
Details: Rattus norvegicus, 336 h, obese female Zucker rats, oral daily, fourteen days; for change in vivo at 30 mg/kg/day / change in vivo at 30 mg/kg: 30 mg/kg/day; for change in vivo at 100 mg/kg/day / change in vivo at 100 mg/kg: 100 mg/kg/day
Protocol: The dosing vehicle was administered to control animals in parallel experiments.
Body weight was determined daily prior to dosing. Animals were allowed free access to rodent chow and water throughout the study. Blood glucose was determined after a 6-hour fast in the afternoon without anesthesia from a tail vein. Serum was also prepared from a blood sample subsequently obtained from the orbital venous plexus (with O2/CO2 anesthesia) prior to and after one week treatment and used lipid and insulin determinations. At two weeks, blood glucose was again determined after a 6-hour fast without anesthesia from a tail vein. Soon thereafter, animals were sacrificed by CO2 inhalation in the afternoon and cardiac blood serum was collected and assessed for various lipids and insulin.

[1] = read-out: BHA, Percent Change from Pre-treatment
[2] = read-out: Glucose, Percent Change from Pre-treatment
[3] = read-out: HDL-C, Percent Change from Pre-treatment
[4] = read-out: Insulin, Percent Change from Pre-treatment
[5] = read-out: NEFA, Percent Change from Pre-treatment
[6] = read-out: Non HDL-C, Percent Change from Pre-treatment
[7] = read-out: TC, Percent Change from Pre-treatment
[8] = read-out: TG, Percent Change from Pre-treatment

Row | Structure (SMILES) | change in vivo at 30 mg/kg/day (read-out: % wt. gain) | change in vivo at 30 mg/kg [1] | change in vivo at 30 mg/kg [2] | change in vivo at 30 mg/kg [3] | change in vivo at 30 mg/kg [4] | change in vivo at 30 mg/kg [5] | change in vivo at 30 mg/kg [6] | change in vivo at 30 mg/kg [7] | change in vivo at 30 mg/kg [8] | change in vivo at 100 mg/kg/day (read-out: % wt. gain) | change in vivo at 100 mg/kg [1] | change in vivo at 100 mg/kg [2] | change in vivo at 100 mg/kg [3] | change in vivo at 100 mg/kg [4] | change in vivo at 100 mg/kg [5] | change in vivo at 100 mg/kg [6] | change in vivo at 100 mg/kg [7] | further results
1 | CC(C)(CCCCOCCCCC(C)(C)COP(=O)(O)O)COP(=O)(O)O.N.N.N.N [Compound A, Phosphoric acid mono-16-(5,5-dimethyl-6-phosphonooxyhexyloxy)-2,2-dimethylhexyl] ester, tetraammonium salt] | 3% | 141% | 1% | 228% | -16% | -32% | 71% | 164% | -31% | 4% | 257% | 6% | 559% | 0% | -53% | 11% | 287% | change in vivo at 10 mg/kg/day (10 mg/kg/day, read-out: % wt. gain): 9%; change in vivo at 10 mg/kg (10 mg/kg/day, read-out: BHA, Percent Change from Pre-treatment): 102%; change in vivo at 10 mg/kg (10 mg/kg/day, read-out: Glucose, Percent Change from Pre-treatment): -9%; change in vivo at 10 mg/kg (10 mg/kg/day, read-out: HDL-C, Percent Change from Pre-treatment): 179%; change in vivo at 10 mg/kg (10 mg/kg/day, read-out: Insulin, Percent Change from Pre-treatment): -7%; change in vivo at 10 mg/kg (10 mg/kg/day, read-out: NEFA, Percent Change from Pre-treatment): 14%; change in vivo at 10 mg/kg (10 mg/kg/day, read-out: Non HDL-C, Percent Change from Pre-treatment): 67%; change in vivo at 10 mg/kg (10 mg/kg/day, read-out: TC, Percent Change from Pre-treatment): 115%; change in vivo at 10 mg/kg (10 mg/kg/day, read-out: TG, Percent Change from Pre-treatment): 11%
2 | CC(C)(CCCCCCOCCCCCCC(C)(C)COP(=O)(O)O)COP(=O)(O)O [Compound C] | 13% | 123% | 9% | -19% | 11% | -33% | 52% | 6% | 22% | – | – | – | – | – | – | – | – | –
3 | CC(C)(CO)CCCCNCCCCC(C)(C)CO [Compound H, 6-(6-Hydroxy-5,5-dimethylhexylamino)-2,2-dimethylhexan-1-ol] | – | – | – | – | – | – | – | – | – | – | – | – | – | – | – | – | – | change in vivo at 53 mg/kg/day (53 mg/kg/day, read-out: % wt. gain): 16%; change in vivo at 53 mg/kg (53 mg/kg/day, read-out: BHA, Percent Change from Pre-treatment): 48%; change in vivo at 53 mg/kg (53 mg/kg/day, read-out: Glucose, Percent Change from Pre-treatment): -23%; change in vivo at 53 mg/kg (53 mg/kg/day, read-out: HDL-C, Percent Change from Pre-treatment): 16%; change in vivo at 53 mg/kg (53 mg/kg/day, read-out: Insulin, Percent Change from Pre-treatment): -49%; change in vivo at 53 mg/kg (53 mg/kg/day, read-out: NEFA, Percent Change from Pre-treatment): -55%; change in vivo at 53 mg/kg (53 mg/kg/day, read-out: Non HDL-C, Percent Change from Pre-treatment): -10%; change in vivo at 53 mg/kg (53 mg/kg/day, read-out: TC, Percent Change from Pre-treatment): 5%; change in vivo at 53 mg/kg (53 mg/kg/day, read-out: TG, Percent Change from Pre-treatment): -32%
4 | CC(C)(CO)CCCCNC(=O)CCCCC(C)(C)CO [Compound J, 7-Hydroxy-6,6-dimethylheptanoic acid (6-hydroxy-5,5-dimethylhexyl)-amide] | 11% | 21% | 18% | 20% | -41% | -38% | -7% | 9% | -10% | – | – | – | – | – | – | – | – | –
5 | CC(C)(CO)CCCCOC(=O)CCCCC(C)(C)CO [Compound K, 7-Hydroxy-6,6-dimethylheptanoic acid 6-hydroxy-5,5-dimethylhexyl ester] | – | – | – | – | – | – | – | – | – | 11% | 103% | -21% | 23% | 0% | 43% | -5% | 12% | change in vivo at 100 mg/kg [8]: 7%
6 | CC(C)(CO)CCCCOP(=O)(O)OCCCCC(C)(C)CO [Compound L, phosphoric acid bis(5,5-dimethyl-6-hydroxy-hexyl)ester] | – | – | – | – | – | – | – | – | – | – | – | – | – | – | – | – | – | change in vivo at 80 mg/kg/day (80 mg/kg/day, read-out: % wt. gain): 0%; change in vivo at 80 mg/kg (80 mg/kg/day, read-out: BHA, Percent Change from Pre-treatment): 575%; change in vivo at 80 mg/kg (80 mg/kg/day, read-out: Glucose, Percent Change from Pre-treatment): 9%; change in vivo at 80 mg/kg (80 mg/kg/day, read-out: HDL-C, Percent Change from Pre-treatment): 8%; change in vivo at 80 mg/kg (80 mg/kg/day, read-out: Insulin, Percent Change from Pre-treatment): 21%; change in vivo at 80 mg/kg (80 mg/kg/day, read-out: NEFA, Percent Change from Pre-treatment): 62%; change in vivo at 80 mg/kg (80 mg/kg/day, read-out: Non HDL-C, Percent Change from Pre-treatment): -17%; change in vivo at 80 mg/kg (80 mg/kg/day, read-out: TC, Percent Change from Pre-treatment): -4%; change in vivo at 80 mg/kg (80 mg/kg/day, read-out: TG, Percent Change from Pre-treatment): -13%
7 | CC(C)(CO)CCCCNC(=O)OCCCCC(C)(C)CO [Compound M, (6-Hydroxy-5,5-dimethylhexyl)-carbamic acid 6-hydroxy-5,5-dimethylhexyl ester] | – | – | – | – | – | – | – | – | – | 20% | 145% | 2% | 65% | 26% | -53% | 84% | 70% | change in vivo at 100 mg/kg [8]: -4%
